Test results: patent US7691563B2, “Method for alleviating pain using sphingosine-1-phosphate and related compounds, and assays for identifying such compounds” (Sanofi-Aventis Pharma GmbH, priority 2003, dated 2010)
Several values for one entry are separate records, joined by “and”; a condition that tells them apart may be missing. Equal values may be shown once.

Tests used:
adenylyl cyclase (AC) [1] = experiment: AC activity of HeLa cell lysates after treatment of cells; type: cell-based, human; settings: for effect of pre-treatment on S1P inhibition of Gαs-stimulated AC activity: HeLa cells, 0.5 μM S1P, PTX 1 μg/μl 24 hours, inhibitors 10 μM 20 minutes, ODN 3 μM, 60 minutes S1P; for effect on serum-induced inhibition of Gαs- and forskolin-stimulated AC activity: HeLa cells transfected with ODN (3 μM), 30 minutes 10% FBS
Procedure: Panel B: Adenylyl cyclase activity of HeLa cell lysates was measured in the absence and presence of serum as described in Materials and Methods section. The Gsα* (80 nM; grey bars)- and forskolin (100 μM; black bars)-stimulated specific activities of ACV were 124±10 pmol/mg/min and 464±89 pmol/min/mg, respectively. The basal activity was 11.75±2 pmol/mg/min. The mean ±SE of at least 2 experiments each done in triplicates is shown. Student T test: *p<0.001.
Panel E: Serum-starved HeLa cells were treated with sense, antisense, and 3M-as ODNs as described above. After 24 hours the cells were incubated for 30 minutes with 10% FBS. Cells were harvested and AC activity in presence of Gαs* (80 nM; grey bars) and forskolin (100 μM; black bars) was determined as described above. Data from at least 3 experiments measured in triplicates are presented as the mean±SEM. Student T test: *p<0.01, **p<0.05.
Panel B: Serum-starved HeLa cells were treated for varying times with 0.5 μM S1P. Cells were harvested and AC activity in presence of 80 nM Gαs* was determined as described in Material and Methods. Data from at least 4 experiments measured in triplicates are presented as the mean ±SE.
Panel C: Serum-starved HeLa cells were treated with sense, antisense, and 3M-as ODNs as described in the Materials and Methods section. After 24 hours the cells were incubated for the indicated times with 0.5 μM S1P. Cells were harvested and AC activity in presence of Gαs* (80 nM) was determined as described above. Data are presented as the mean ±SEM of three determinations.
Panel A: Serum-starved HeLa cells were treated with 0.5 μM S1P for 3 (grey bars) or 60 (black bars) minutes. Prior incubation with S1P the cells were incubated for 24 hours with […] pertussis toxin (PTX). AC activity in was determined presence of 80 nM Gαs*. Data from at least 2 experiments measured in triplicates are presented as the mean ±SE.
Panel B: Serum-starved HeLa cells were treated with 0.5 μM S1P. Prior incubation with S1P the cells were incubated for 20 minutes with 10 μM U73122, R031-8220, BAPTA-AM or U0126. AC activity in was determined presence of 80 nM Gαs*. Data from at least 2 experiments measured in triplicates are presented as the mean ±SE.
Spinal cords were lysed in 25 mM Hepes, pH 7.4, 1 mM EGTA and cell membranes were prepared as described by Kassis and Fishman. Aliquots were stored at −80° C. until use. AC activity assays were performed in a volume of 100 μl for 15 min at room temperature in the presence of 100 μM MgCl2 as previously described (Patel et al., 2002). Gsα* (80 nM) or forskolin (100 μM) were used to stimulate AC enzyme activity in membranes (10 μg protein).
The sequences of the oligodeoxynucleotides (ODNs) were chosen as published previously (Scholich et al., 2001). Sense: 5′-CTGTTCATGCCGGTT-3′, antisense: 5′-AACCGGCATGAACAG-3′, and antisense ODN harboring three mutations (3M-as; mutations are underlined): 5′-AATCCGTATGAACAC-3′. HeLa-cells were plated on 35 mm dishes (300,000 cells) and grown in DMEM medium (Gibco, Karlsruhe, Germany) containing 10% FBS and 1% penicillin/streptoMycin for 24 hours. The ODNs (3 μM each) were introduced into the cells by transfections using Tfx20 (Promega, Madison, Wis.) in 1 ml serum-free medium according to the instructions of the manufacturer. Two hours later, 1 ml DMEM (Gibco, Karlsruhe, Germany) containing 10% FBS was added. The cells were then incubated for 6 hours. Then the medium was exchanged against serum-free DMEM (Gibco, Karlsruhe, Germany), followed by an incubation for 16 hours in serum-free DMEM (Gibco, Karlsruhe, Germany) before being treated with 10% serum or […] S1P. The cells were then used for Western blots by adding boiling 1× Laemmli buffer or they were havested for AC activity assays as described above.

PAM = PAM translocation to the plasma membrane in HeLa cells (immunofluorescence); type: cell-based, human; settings: HeLa cells, 0.5 μM S1P; PTX 1 μg/μl 24 hours; GF109203X 1 μM, others 10 μM, 20 minutes
Procedure: Panel B: HeLa cells were treated with 10% fetal bovine serum for different times and stained with anti-PAM antibodies to monitor the subcellular localization.
Panel B: HeLa cells were treated with 0.5 μM S1P for 30 minutes and stained with anti-PAM antibodies to monitor the subcellular localization.
Panel C: Time dependence of PAM translocation in HeLa cells. Serum-starved HeLa cells were treated with 0.5 μM S1P for different times and stained with anti-PAM antibodies to monitor the subcellular localization.
Panel D: HeLa cells were treated with 0.5 μM S1P for 20 minutes and stained with anti-PAM antibodies to monitor the subcellular localization. Prior S1P-treatment were the cells incubated for 24 hours with […] pertussis toxin (PTX), for 20 minutes with, 1 μM GF109203X, 10 μM U0126, BAPTA-AM, U73122 or Ro31-223.
To monitor distribution of PAM in HeLa cells, cells were grown on glass coverslips in DMEM with 10% FBS and 1% penicillin/streptoMycin (Gibco, Karlsruhe, Germany). To visualize translocation of PAM HeLa, cells were serum starved overnight and subsequently treated with 10% serum for 2 hours. Wherever indicated, cells were preincubated for 30 minutes in the presence of different concentrations of inhibitors. The cells were fixed in 4% paraformaldehyde (Sigma, Taufkirchen, Germany) in PBS for 10 minutes and then permeablized in 0.1% Triton X-100 for another 5 minutes. The coverslips were blocked for 1 hour in 3% BSA in PBS and then incubated for 1 hour with anti-PAM antibody (1:50 dilution). This was followed by incubation with FITC-labeled goat anti-rabbit antibody in PBS containing 3% BSA. The cells were then washed with PBS and mounted. For the analysis confocal (BioRad, Hercules, Calif.) and regular flourescence microscopes (Nikon, Duesseldorf, Germany) were used.

adenylyl cyclase (AC) [2] = experiment: AC activity assay, purified PAM added to spinal cord or DRG lysates; type: biochemical, rat; settings: 30 nM PAM
Procedure: Panel B: Lysates of spinal cords or DRG (10 μg) were assayed for AC activity in the presence of 80 nM Gαs as described in Material and Methods. The mean ±SEM of at least 3 determinations done in triplicates is shown.
PAM purification was performed with some modifications as published previously (Scholich et al. 2001). Shortly, HeLa cells were grown in DMEM medium with 10% fetal bovine serum and 1% penicillin/streptoMycin. Confluent cells of forty 150 mm dishes were harvested with 1×PBS, 1 mM EDTA and pelleted for 5 minutes at 400×g. The cells were resuspended in TED buffer (50 mM Tris-HCl, pH 8.0, 1 mM EDTA, 1 mM DTT) containing 125 mM NaCl, 20 μg/ml of aprotinin, 20 μg/ml leupeptin, 1 mM benzamidine, 5 μg/ml soybean trypsin inhibitor and lysed by 2×5 seconds of sonication. The homogenate was centrifuged at 27000×g for 30 min at 4° C., and the supernatant was loaded on a Q-Sepharose XK16 column (Amersham, Pharmacia, Piscataway, N.J.) and eluted with a gradient of 150-350 mM NaCl in TED according to instructions of the manufacturer. The fractions were analyzed by Western blotting according to standard procedures; positive fractions were pooled and the NaCl concentration adjusted to 1 M. The protein was then loaded on a Phenyl-Sepharose XK16 column (Amersham, Pharmacia, Piscataway, N.J.) and washed with 300 mM NaCl in TED according to instructions of the manufacturer. The flow through and wash fractions contained PAM. They were pooled and the buffer exchanged for the aforementioned TED buffer containing 100 mM NaCl using Centricon 50 (Amicon, Beverly, Mass.) according to the manufacturer's instructions. The protein was then loaded on a MonoS 5/5 FPLC column (Amersham, Pharmacia, Piscataway, N.J.) and washed with the loading buffer (100 mM NaCl in TED) according to instructions of the manufacturer. The flow through was collected and applied to a Mono Q 5/5 FPLC column (Amersham, Pharmacia, Piscataway, N.J.). The protein was eluted with a gradient from 150-400 mM NaCl in TED. […]

Row | Molecule | effect of pre-treatment on S1P-induced PAM translocation (PAM) | effect of pre-treatment on S1P inhibition of Gαs-stimulated AC activity (adenylyl cyclase (AC) [1]) | other results
1 | C=C[C@@]1(C)CC(=O)[C@]2(O)[C@@]3(C)[C@@H](O)CCC(C)(C)[C@@H]3[C@H](O)[C@H](OC(C)=O)[C@@]2(C)O1 [forskolin] |  |  | forskolin-stimulated specific activity of AC (adenylyl cyclase (AC) [1]; HeLa cell lysates, 100 μM forskolin): 464 ± 89 pmol/min/mg
2 | Pertussis toxin [reference compound] | eliminated | eliminated | 
3 | CN(C)CCCn1cc(C2=C(c3c[nH]c4ccccc34)C(=O)NC2=O)c2ccccc21 [GF109203X, reference compound] | eliminated |  | 
4 | CC(=O)OCOC(=O)CN(CC(=O)OCOC(C)=O)c1ccccc1OCCOc1ccccc1N(CC(=O)OCOC(C)=O)CC(=O)OCOC(C)=O [BAPTA-AM, reference compound] | did not interfere |  | 
5 | Cn1cc(C2=C(c3cn(CCCSC(=N)N)c4ccccc34)C(=O)NC2=O)c2ccccc21 [RO 31-8220] |  | eliminated | 
6 | PAM: Protein Associated with Myc, giant protein of 510 kDa, full length purified from HeLa cells |  |  | decrease of Gαs-stimulated AC activity (adenylyl cyclase (AC) [2]; DRG lysates): 32%; inhibition of Gαs-stimulated AC activity (adenylyl cyclase (AC) [2]; spinal cord lysates of animals treated for 1 hour with formalin): 25%; decrease of Gαs-stimulated AC activity (adenylyl cyclase (AC) [2]; spinal cord lysates of control animals): 50% and 49%
7 | COc1ccc2c(c1)CC[C@@H]1[C@@H]2CC[C@]2(C)[C@@H](NCCCCCCN3C(=O)C=CC3=O)CC[C@@H]12 [U73122, reference compound] | abolished | abolished | 
8 | sense ODN: sense ODN used in HeLa cells, 5′-CTGTTCATGCCGGTT-3′ (DNA, backbone and methylation of C not given here) |  |  | effect on serum-induced inhibition of Gαs- and forskolin-stimulated AC activity (adenylyl cyclase (AC) [1]): no influence
9 | 3M-as: antisense ODN harboring three mutations, HeLa cells, 5′-AATCCGTATGAACAC-3′ (DNA, backbone and methylation of C not given here) |  |  | effect on serum-induced inhibition of Gαs- and forskolin-stimulated AC activity (adenylyl cyclase (AC) [1]): no influence
